# Test results published in US4438104A, “Endorphins having placental or pancreatic origin” (Endorphin, Inc., priority 1982, dated 1984).
# Columns and labels:
# mice = conditions: stated as known characteristic; cited from earlier work
# Balb/C mice = experiment: Delay in tail-flick in mice from a standardized heat injury; format: in vivo
# Method: Using p-endorphin as prepared in Example 2 tests of the delay in tail-flick in mice from a standardized heat injury were conducted under our direction and control as follows: Inbred mice (in this case Balb/C males weighing 20 to 25 gms) were held in a special body holder in cotton and a standardized "heat-run" or lamp was held a standardized distance away from the base of the tail which was painted black with india ink to increase the amount of energy it absorbs. On the average, 3.5 seconds of this heat is enough to cause these mice to flick their tail in a vigorous fashion. This end-point is unmistakable. The standard deviation of 50 determinations of this kind is approximately 0.7 seconds. Therefore, the normal range of large numbers of these mice with multiple determinations would be about 2.2 to 4.8 seconds.
# The data set forth below in Table 1 illustrate the amount of time for the onset of tail flicking by mice tested at various times after the injection of […] of p-endorphin (P-EP).
substance,measurement,setting,value
"beta-endorphin (YGGFMTSEKSQTPLVTLFKNAIIKNAYKKGE; Beta-endorphin; UniProt P01189 237-267, looked up) [endogenous opioid peptide hormone, 61 to 91 portion of beta lipotropin; standard]",Staub tail,mice,characteristic
same,delay in tail-flick,Balb/C mice; mice,more than 10 seconds
same,amount required to obtain the same in vivo effect,Balb/C mice; same tail-flick effect as 30 μg P-EP preparation,about 0.8 nanamoles per mouse
